Results on three compounds are retold here after US8232107B2, “Methods for measuring the metabolism of neurally derived biomolecules in vivo” (Washington University in St. Louis, priority 2005, dated 2012).

The conditions of series [1]: in vivo, iv, 2 mg/kg. The source says:
All human studies were approved by the Washington University Human Studies Committee and the General Clinical Research Center (GCRC) Advisory Committee. Informed consent was obtained from all participants. All participants were screened to be in good general health and without neurologic disease. Seven men and three women (23-45 yrs old) participated. Each research participant was admitted to the GCRC at 7:00 AM after an overnight fast from 8 PM the preceding evening. The GCRC Research Kitchen provided meals (60% carbohydrate, 20% fat, 20% protein, low leucine diet during labeled leucine infusion) at 9 AM, 1 PM, and 6 PM and the participant had free access to water. All food and water consumption was recorded during the admission by nursing staff and the GCRC kitchen. One intravenous catheter was placed in an antecubital vein and used to administer the stable isotope labeled leucine solution. A second intravenous catheter was placed in the contra-lateral antecubital vein to obtain blood samples. A subarachnoid catheter was inserted at the L3-L4 interspace via a Touhy needle, so that CSF could be sampled without performing multiple lumbar punctures (Williams, 2002, Neurology 58: 1859-1860). […]
Every hour, 10 ml of plasma was obtained through the other IV. […] To obtain amino acid sequence and abundance data, these parent ions were subjected to collision induced dissociation (CID 28%), and tandem MS analysis of their doubly-charged species ([M+2H]^+2; m/z 663.6 and 666.6) were scanned in selected reaction monitoring mode (SRM), so that the y- and b-series ions generated were used for isotope ratio quantitation (FIG. 6). […]
Plasma and CSF samples were analyzed to determine the amount of labeled leucine present in each fluid (FIG. 9). The labeled to unlabeled leucine ratios for plasma and CSF ^13C6-leucine were quantified using capillary gas chromatography-mass spectrometry (GC-MS) (Yarasheski et al. 2005, Am J. Physiol. Endocrinol. Metab. 288: E278-284; Yarasheski et al. 1998 Am J. Physiol. 275: E577-583), which is more appropriate than LC-ESI-MS for low mass amino acid analysis.

Series [2] is described as follows: Measurement of ApoE metabolism in vivo (CSF, WUE4 affinity purification, nanoLC tandem MS). Also noted: species or system human. The source says:
As depicted in FIG. 13, human ApoE was immunoprecipitated from CSF or astrocyte cell culture media using WUE4, a specific anti-human ApoE monoclonal (anti-ApoE) antibody. An immortalized astrocyte cell line from transgenic mice expressing human ApoE was used to produce ^13C6-labeled leucine ApoE standards. Immunoprecipitated ApoE was then digested with sequencing-grade trypsin. Released peptides were separated by nano liquid chromatography and quantitated by tandem mass spectrometry (nanoLC-MS). The efficiency and selectivity of the immuno-affinity purification was confirmed by analyzing the samples following a general proteomics LC-MS method. Results from Bioworks™3.2, using the SEQUEST algorithm, confirmed ApoE was the predominant protein present in samples, and identified the most abundant peptides containing leucines, which could be used for quantitation. Due to the 6 Da mass shift of a ^13C6-labeled leucine, unlabeled peptides were distinguishable from labeled peptides. Tandem MS was performed on the peptides of interest, and the percent of ^13C-leucine incorporated into ApoE was determined by calculating the ratio of labeled product ions to unlabeled product ions. The excellent linearity from 0-25% labeling (R^2=0.99) indicates the method developed to measure ApoE is sensitive, specific, and accurate.
CSF was collected every hour for 36 hours.

Series [3] can be described thus: In vivo labeling of Aβ in human CSF, immunoprecipitation-MS/MS, calculation of FSR and FCR. As for the experimental part: Informed consent was obtained from all participants. […] CSF samples were obtained hourly throughout the study.
Aβ metabolic labeling curves of three participants are presented in FIG. 8. ^13C6-labeled leucine was infused through one IV at a rate of 1.9 (circles), 2.5 (triangles), or 2.5 (squares) mg/kg/hr for 12 (circles, triangles) or 9 (squares) hours. Each hour, 10 ml of plasma and 6 ml of CSF were obtained through the other IV and the lumbar catheter, respectively. There was a 5-hour lag time before significant rises in labeled Aβ was detected. This was followed by a 9 (squares) or 12 (triangles or circles) hour increase in labeled Aβ until it plateaued for another 5 hours.
For each hourly sample of CSF collected, the ratio of labeled to unlabeled Aβ was determined by immunoprecipitation-MS/MS, as described above. The MS/MS ions from ^13C6-labeled Aβ17-28 were divided by the MS/MS ions from unlabeled Aβ17-28 to produce a ratio of labeled Aβ to unlabeled Aβ (see TTR formula, above). There was no measurable labeled Aβ for the first 4 hours, followed by an increase from 5 to 13 hours. There was no significant change from 13 to 24 hours. The labeled Aβ decreased from 24 to 36 hours.
[formula] Where (Et2-Et1)Aβ/(t2-t1) is defined as the slope of labeled Aβ during labeling and the Precursor E is the ratio of labeled leucine. FSR, in percent per hour, was operationally defined as the slope of the linear regression from 6 to 15 hours divided by the average of CSF ^13C6-labeled leucine level during infusion (see FIG. 11A-C). For example, a FSR of 7.6% per hour means that 7.6% of total Aβ was produced each hour.
The fractional clearance rate (FCR) was calculated by fitting the slope of the natural logarithm of the clearance portion of the labeled Aβ curve, according to the following formula: […]
The FCR was operationally defined as the natural log of the labeled Aβ from 24 to 36 hours (FIG. 11D-F). For example, a FCR of 8.3% per hour means that 8.3% of total Aβ was cleared each hour. The average FSR of Aβ for these 6 healthy young participants was 7.6%/hr and the average FCR was 8.3%/hr (FIG. 12). These values were not statistically different from each other.

Regarding `CC(C)C[C@H](N)C(=O)O` [^13C6-leucine], in series [1], the “steady state level of 13C6-leucine in CSF” value is recorded as 10%; the “steady state level of 13C6-leucine in plasma” value is on record as 14%; the “time to reach steady state levels in plasma and CSF” value is “within an hour”.

“ApoE: human apolipoprotein E, CNS-derived, purified from CSF”: the “fractional synthesis rate (FSR) of ApoE” value in series [2] (CSF, young normal controls (FIG. 15 and 16)) is given as “approximately 2 percent per hour”. In series [2] (from FSR), the “time in which approximately half of the ApoE pool is synthesized in the human brain” value is on record as “about 24 hours”.

Take “Aβ: amyloid-β protein, CNS derived biomolecule whose metabolism is measured”: the “average fractional synthesis rate (FSR) of Aβ” value in series [3] (6 healthy young participants) was 7.6 %/hr. Also, the “average fractional clearance rate (FCR) of Aβ” value in series [3] (hours 24 to 36, 3 participants) is reported as 8.3 %/hr. In addition, the “initial period with no measurable labeled Aβ” value in series [3] (mean of n=6 (FIG. 10)) was 4 h. Besides, the “lag time before significant rises in labeled Aβ” value in series [3] (three participants (FIG. 8)) is 5 h.
